Data set [1] can be described thus: Intrinsic clearance in human liver microsomes.
Data set [2] is described as follows: Distribution coefficient, log D of the compound. The format is physicochemical. To be noted: octanol/water.
The target in data set [3] is T1, Glucocorticoid receptor (Homo sapiens, UniProt P04150).
T1 sequence (P04150 whole entry): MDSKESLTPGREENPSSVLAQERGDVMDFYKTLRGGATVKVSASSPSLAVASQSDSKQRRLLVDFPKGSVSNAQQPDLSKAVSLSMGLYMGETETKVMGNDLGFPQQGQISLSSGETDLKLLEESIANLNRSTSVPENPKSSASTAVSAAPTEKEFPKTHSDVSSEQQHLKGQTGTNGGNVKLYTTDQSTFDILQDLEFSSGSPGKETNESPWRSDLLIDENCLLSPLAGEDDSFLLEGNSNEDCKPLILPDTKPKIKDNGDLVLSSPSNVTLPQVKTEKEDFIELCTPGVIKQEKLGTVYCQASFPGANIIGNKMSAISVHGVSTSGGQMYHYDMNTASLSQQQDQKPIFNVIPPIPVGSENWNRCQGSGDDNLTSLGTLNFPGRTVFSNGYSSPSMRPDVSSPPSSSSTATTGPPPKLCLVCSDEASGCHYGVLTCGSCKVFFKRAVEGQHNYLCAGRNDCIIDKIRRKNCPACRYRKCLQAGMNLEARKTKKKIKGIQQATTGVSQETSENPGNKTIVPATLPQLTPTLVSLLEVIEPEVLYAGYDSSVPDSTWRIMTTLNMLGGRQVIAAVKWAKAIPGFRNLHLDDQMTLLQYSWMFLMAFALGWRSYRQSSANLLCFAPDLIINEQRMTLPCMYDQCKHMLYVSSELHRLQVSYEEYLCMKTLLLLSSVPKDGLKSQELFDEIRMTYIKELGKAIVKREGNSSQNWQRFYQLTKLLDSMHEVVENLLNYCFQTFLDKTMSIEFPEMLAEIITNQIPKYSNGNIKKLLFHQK
As to the kind of experiment: Antagonist activity at GR (unknown origin) by Gal4-based cellular assay.

The target of a further data set is CYP2C9 (Homo sapiens, UniProt P11712). As to the kind of experiment: Inhibition of CYP2C9 (unknown origin) at 3 uM. The format is ADME.
Sequence of CYP2C9 (P11712 whole entry): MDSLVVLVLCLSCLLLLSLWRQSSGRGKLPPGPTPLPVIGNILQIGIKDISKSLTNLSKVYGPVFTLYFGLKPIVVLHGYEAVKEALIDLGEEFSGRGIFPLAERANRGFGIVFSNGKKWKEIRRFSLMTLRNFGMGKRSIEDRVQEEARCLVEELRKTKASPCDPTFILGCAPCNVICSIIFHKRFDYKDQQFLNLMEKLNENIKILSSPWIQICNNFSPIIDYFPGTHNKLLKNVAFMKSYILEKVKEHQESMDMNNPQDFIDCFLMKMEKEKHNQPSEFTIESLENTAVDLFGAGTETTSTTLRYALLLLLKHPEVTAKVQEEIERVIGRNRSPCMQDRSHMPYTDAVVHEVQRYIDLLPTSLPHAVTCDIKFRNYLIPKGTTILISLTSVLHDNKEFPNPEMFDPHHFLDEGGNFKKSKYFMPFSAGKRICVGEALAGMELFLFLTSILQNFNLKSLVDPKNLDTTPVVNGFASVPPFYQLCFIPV
The nature of data set [4]: Fraction unbound in human plasma. The format is ADME, cell-free.
Another data set deals with MDR1 (P-gp). As to the kind of experiment: Apparent permeability across basolateral to apical side in MDCK cells expressing human MDR1. Type of data set: ADME, cell-based, Canis lupus familiaris. Conditions: dog; call rule not given here.
A short description of data set [5]: Thermodynamic solubility of the compound in phosphate buffered saline at pH 6.5. Type of data set: physicochemical. To be noted: read-out: Therm_solubility.
For data set [6], the target named is T1, Glucocorticoid receptor. As to the kind of experiment: Displacement of [3H]-dexamethasone from recombinant human GST-tagged GR ligand binding domain after 4 hrs by liquid scintillation counting. (In a radioligand displacement assay an active substance lowers the binding of a labelled ligand.)
A short description of data set [7]: Volume of distribution at steady state in rat. Type of data set: ADME. Conditions: in vivo, read-out: Vdss.
Data set [8] in a line: AUC in Wistar rat at 500 mg/kg, po administered as single dose measured up to 8 hrs post dose by LC-MS analysis. To be noted: in vivo. Type of data set: ADME, organism-based. Further details: dose 500 mg/kg, time < 8 hr, route oral.
Data set [9] in a line: Fraction unbound in dog plasma. Type of data set: ADME, cell-free, Canis lupus familiaris.
Data set [10] addresses T2, Mineralocorticoid receptor (Rattus norvegicus, UniProt P22199).
T2 sequence (P22199 whole entry): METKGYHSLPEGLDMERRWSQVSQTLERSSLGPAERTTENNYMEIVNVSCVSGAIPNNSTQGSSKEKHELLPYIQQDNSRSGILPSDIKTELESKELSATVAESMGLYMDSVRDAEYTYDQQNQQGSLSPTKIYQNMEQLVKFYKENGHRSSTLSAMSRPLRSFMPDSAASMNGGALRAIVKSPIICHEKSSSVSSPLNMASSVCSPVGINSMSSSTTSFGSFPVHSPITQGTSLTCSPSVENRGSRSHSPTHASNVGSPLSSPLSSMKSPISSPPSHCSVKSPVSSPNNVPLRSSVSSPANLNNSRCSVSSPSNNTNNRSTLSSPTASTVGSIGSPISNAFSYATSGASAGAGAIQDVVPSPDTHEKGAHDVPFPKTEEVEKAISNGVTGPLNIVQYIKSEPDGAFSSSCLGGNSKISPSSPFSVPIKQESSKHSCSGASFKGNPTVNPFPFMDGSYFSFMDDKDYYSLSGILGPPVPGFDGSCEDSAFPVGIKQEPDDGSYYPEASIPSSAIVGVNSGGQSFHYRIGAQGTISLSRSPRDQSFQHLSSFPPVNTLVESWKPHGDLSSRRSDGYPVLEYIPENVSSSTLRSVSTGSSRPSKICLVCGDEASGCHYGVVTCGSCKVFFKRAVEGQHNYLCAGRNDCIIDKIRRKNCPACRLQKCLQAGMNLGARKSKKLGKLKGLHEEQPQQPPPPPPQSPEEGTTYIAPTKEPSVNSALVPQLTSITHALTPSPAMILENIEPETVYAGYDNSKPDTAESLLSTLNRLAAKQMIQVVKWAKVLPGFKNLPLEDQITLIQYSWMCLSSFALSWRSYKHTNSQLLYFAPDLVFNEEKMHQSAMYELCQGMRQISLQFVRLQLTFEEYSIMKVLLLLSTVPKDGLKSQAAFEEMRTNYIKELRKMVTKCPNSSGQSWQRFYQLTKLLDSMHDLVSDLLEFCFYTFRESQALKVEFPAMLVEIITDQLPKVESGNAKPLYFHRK
As to the kind of experiment: Antagonist activity at rat GAL4-DBD fused MR ligand binding domain transfected in human Huh7 cells co-expressing GAL4-RE-Luc assessed as reduction in aldosterone-induced luciferase activity after 16 hrs in serum free condition by luciferase reporter gene assay. Type of data set: cell-based.

In the next data set the test system is Rattus norvegicus. As to the kind of experiment: Effect on reproductive system in Wistar Han rat at 30 to 500 mg/kg, po for 14 days. Conditions: in vivo, 336 h. Type of data set: ADME, organism-based.

The structures appear in SMILES notation. ≈ marks a conversion by molar mass, not a printed value.

With `O=C1COc2ccc(N3CCOC[C@H]3c3ccccc3)cc2N1`, the microsomal CLint (in general, the rate of metabolic loss divided by the concentration) in data set [1] stood at 18.3 µL/min/mg. For the same molecule, the logD (as a rule, lipophilicity at a set pH, counting ionised and neutral species) in data set [2] came out at 2.7. On Glucocorticoid receptor [3], the IC50 – broadly, the concentration needed to halve the response being measured – is above 10 µM. Moreover, the inhibition (usually the percentage by which the read-out fell short of the control) at 3 µM against CYP2C9 was below 10%.

For the molecule `C[C@@H]1CN(c2ccc3c(n2)NC(=O)CO3)[C@H](c2ccccc2)CO1`, the results for the unbound share (fraction unbound) in data set [4] and in [9] were 0.15 and 0.136, respectively. Also, in the data set on MDR1 (P-gp), the Papp B→A (as a rule, how fast a substance crosses the layer from the basolateral side) turned out to be 24.7 ×10⁻⁶ cm/s. Also, the solubility thermodynamic in data set [5] was determined as 17 µM (≈ 5.53 µg/mL). In [2], the logD came to 2.8. Also, the IC50 at Glucocorticoid receptor [6] was above 10 µM; in [10], 0.0032 µM; at Glucocorticoid receptor [3], above 10 µM. Further, the Vd in [7] was found to be 6.15 L/kg. For the same molecule, the AUC (commonly the area under the concentration-time curve, a measure of exposure) at 8 h in [8] turned out to be 13500 ng·h/mL. The same molecule returned an inhibition at 3 µM on CYP2C9 below 20%. Besides, the Activity result with Rattus norvegicus was “Non-Toxic”.

These data come from ChEMBL document CHEMBL4024791, “Identification of Morpholino-2H-pyrido[3,2-b][1,4]oxazin-3(4H)-ones as Nonsteroidal Mineralocorticoid Antagonists” (J Med Chem, 2018).
